Results reported in ChEMBL document CHEMBL1201862, “PubChem BioAssay data set” (2004).
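Results reflect a 48-hour exposure of cells in 96-well plates to compound at five concentrations. Abbreviation: GI50, concentration required for 50% inhibition of growth.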 Calls of active or inactive are those of the source. Rule as the data show it: active = GI50 up to about 1.1 µM and inactive = higher.

Experiments:
Assay in all cases: NCI anticancer screen, dose series, 48 h
786-0 = tested on: 786-0
A498 = tested on: A498
A549 = tested on: A549
ACHN = tested on: ACHN
CAKI-1 = tested on: CAKI-1
CCRF-CEM = tested on: CCRF-CEM
COLO 205 = tested on: COLO 205
DLD-1 = tested on: DLD-1
DMS-114 = tested on: DMS-114
DMS-273 = tested on: DMS-273
HCC 2998 = tested on: HCC 2998
HCT-116 = tested on: HCT-116
HCT-15 = tested on: HCT-15
HL-60 = tested on: HL-60
HOP-18 = tested on: HOP-18
HOP-62 = tested on: HOP-62
HOP-92 = tested on: HOP-92
HT-29 = tested on: HT-29
IGROV-1 = tested on: IGROV-1
K562 = tested on: K562
KM-20L2 = tested on: KM-20L2
KM12 = tested on: KM12
LOX IMVI = tested on: LOX IMVI
LXFL 529 = tested on: LXFL 529
M14 = tested on: M14
M19-MEL = tested on: M19-MEL
MOLT-4 = tested on: MOLT-4
Malme-3M = tested on: Malme-3M
NCI-H226 = tested on: NCI-H226
NCI-H23 = tested on: NCI-H23
NCI-H460 = tested on: NCI-H460
NCI-H522 = tested on: NCI-H522
OVCAR-3 = tested on: OVCAR-3
OVCAR-4 = tested on: OVCAR-4
OVCAR-8 = tested on: OVCAR-8
RPMI-8226 = tested on: RPMI-8226
RXF 393 = tested on: RXF 393
RXF 631 = tested on: RXF 631
SF-268 = tested on: SF-268
SF-295 = tested on: SF-295
SF-539 = tested on: SF-539
SK-MEL-28 = tested on: SK-MEL-28
SK-MEL-2 = tested on: SK-MEL-2
SK-MEL-5 = tested on: SK-MEL-5
SK-OV-3 = tested on: SK-OV-3
SN12C = tested on: SN12C
SNB-19 = tested on: SNB-19
SNB-75 = tested on: SNB-75
SNB-78 = tested on: SNB-78
SW-620 = tested on: SW-620
TK-10 = tested on: TK-10
U-251 = tested on: U-251
UACC-257 = tested on: UACC-257
UACC-62 = tested on: UACC-62
UO-31 = tested on: UO-31
XF498 = tested on: XF498
EKVX = tested on: EKVX
OVCAR-5 = tested on: OVCAR-5
SR = tested on: SR

Structure (SMILES): Cc1ccc([Se][Se]c2ccc(C)cc2)cc1
- GI50 (786-0): 18.6 µM (inactive)
- GI50 (A498): > 100 µM (inactive)
- GI50 (A549): 33.3 µM (inactive)
- GI50 (ACHN): 25.3 µM (inactive)
- GI50 (CAKI-1): 47.4 µM (inactive)
- GI50 (CCRF-CEM): 3.48 µM (inactive)
- GI50 (COLO 205): > 100 µM (inactive)
- GI50 (DLD-1): 17.7 µM (inactive)
- GI50 (DMS-114): 11.6 µM (inactive)
- GI50 (DMS-273): 16.4 µM (inactive)
- GI50 (HCC 2998): 53.8 µM (inactive)
- GI50 (HCT-116): 14.4 µM (inactive)
- GI50 (HCT-15): 9.35 µM
- GI50 (HL-60): 4.02 µM (inactive)
- GI50 (HOP-18): 6.46 µM (inactive)
- GI50 (HOP-62): > 100 µM (inactive)
- GI50 (HOP-92): 6.87 µM (inactive)
- GI50 (HT-29): 20.5 µM (inactive)
- GI50 (IGROV-1): 38.3 µM (inactive)
- GI50 (K562): 5.04 µM (inactive)
- GI50 (KM-20L2): 38.6 µM (inactive)
- GI50 (KM12): 50.2 µM (inactive)
- GI50 (LOX IMVI): 5.42 µM (inactive)
- GI50 (LXFL 529): 4.76 µM (inactive)
- GI50 (M14): > 10 µM (inactive)
- GI50 (M19-MEL): 13.7 µM (inactive)
- GI50 (MOLT-4): 15.1 µM (inactive)
- GI50 (Malme-3M): 32.4 µM (inactive)
- GI50 (NCI-H226): 24.5 µM (inactive)
- GI50 (NCI-H23): 23.8 µM (inactive)
- GI50 (NCI-H460): 37.8 µM (inactive)
- GI50 (NCI-H522): 3.32 µM (inactive)
- GI50 (OVCAR-3): 31.6 µM (inactive)
- GI50 (OVCAR-4): 12.5 µM (inactive)
- GI50 (OVCAR-8): 45.3 µM (inactive)
- GI50 (RPMI-8226): 5.02 µM (inactive)
- GI50 (RXF 393): 19.9 µM (inactive)
- GI50 (RXF 631): 21.9 µM (inactive)
- GI50 (SF-268): 6.84 µM (inactive)
- GI50 (SF-295): 23.3 µM (inactive)
- GI50 (SF-539): 22.3 µM (inactive)
- GI50 (SK-MEL-28): 19.1 µM (inactive)
- GI50 (SK-MEL-2): 45.2 µM (inactive)
- GI50 (SK-MEL-5): 16 µM (inactive)
- GI50 (SK-OV-3): > 100 µM (inactive)
- GI50 (SN12C): 26.7 µM (inactive)
- GI50 (SNB-19): 33 µM (inactive)
- GI50 (SNB-75): 7.91 µM (inactive)
- GI50 (SNB-78): 16.5 µM (inactive)
- GI50 (SW-620): 7.62 µM (inactive)
- GI50 (TK-10): 67.9 µM (inactive)
- GI50 (U-251): 3.18 µM (inactive)
- GI50 (UACC-257): 17 µM (inactive)
- GI50 (UACC-62): 9.4 µM (inactive)
- GI50 (UO-31): 14.1 µM (inactive)
- GI50 (XF498): 12.7 µM (inactive)

Structure (SMILES): COc1ccc(C2c3cc4c(cc3OC(O)(CO)C2C(=O)O)OCO4)cc1.COc1ccc(C2c3cc4c(cc3OC3(O)COC(=O)C23)OCO4)cc1 (stereo not given)
- GI50 (A498): 89.3 µM (inactive)
- GI50 (A549): 36.2 µM (inactive)
- GI50 (CCRF-CEM): 18.7 µM (inactive)
- GI50 (COLO 205): 10.3 µM (inactive)
- GI50 (DLD-1): 21.8 µM (inactive)
- GI50 (DMS-114): 22.2 µM (inactive)
- GI50 (DMS-273): 4.14 µM (inactive)
- GI50 (EKVX): 31.4 µM (inactive)
- GI50 (HCC 2998): 20.2 µM (inactive)
- GI50 (HCT-116): 18.2 µM (inactive)
- GI50 (HCT-15): 17.7 µM
- GI50 (HL-60): 17.2 µM (inactive)
- GI50 (HOP-18): 50.4 µM (inactive)
- GI50 (HOP-62): 33.7 µM (inactive)
- GI50 (HOP-92): 21 µM (inactive)
- GI50 (HT-29): 24.7 µM (inactive)
- GI50 (IGROV-1): 20.4 µM (inactive)
- GI50 (K562): 19.1 µM (inactive)
- GI50 (KM-20L2): 43.2 µM (inactive)
- GI50 (KM12): 28.2 µM (inactive)
- GI50 (LOX IMVI): 16.5 µM (inactive)
- GI50 (LXFL 529): 15.6 µM (inactive)
- GI50 (M14): 15.3 µM (inactive)
- GI50 (M19-MEL): 4.6 µM (inactive)
- GI50 (MOLT-4): 19.1 µM (inactive)
- GI50 (Malme-3M): 26.9 µM (inactive)
- GI50 (NCI-H226): 22.5 µM (inactive)
- GI50 (NCI-H23): 23.4 µM (inactive)
- GI50 (NCI-H460): 19.1 µM (inactive)
- GI50 (OVCAR-3): 22.4 µM (inactive)
- GI50 (OVCAR-4): > 100 µM (inactive)
- GI50 (OVCAR-5): 39.4 µM (inactive)
- GI50 (OVCAR-8): 20.5 µM (inactive)
- GI50 (RPMI-8226): 20.4 µM (inactive)
- GI50 (RXF 393): 16.9 µM (inactive)
- GI50 (RXF 631): 19.5 µM (inactive)
- GI50 (SF-268): 28 µM (inactive)
- GI50 (SF-295): 22.8 µM (inactive)
- GI50 (SF-539): 20.7 µM (inactive)
- GI50 (SK-MEL-28): 25.2 µM (inactive)
- GI50 (SK-MEL-2): 25.9 µM (inactive)
- GI50 (SK-MEL-5): 19.8 µM (inactive)
- GI50 (SK-OV-3): 40.1 µM (inactive)
- GI50 (SN12C): 23.7 µM (inactive)
- GI50 (SNB-75): 30.3 µM (inactive)
- GI50 (SNB-78): 23.2 µM (inactive)
- GI50 (SR): 19.2 µM (inactive)
- GI50 (SW-620): 18.7 µM (inactive)
- GI50 (TK-10): 67.6 µM (inactive)
- GI50 (U-251): 19.8 µM (inactive)
- GI50 (UACC-257): 21.5 µM (inactive)
- GI50 (UACC-62): 17.7 µM (inactive)
- GI50 (UO-31): 29.9 µM (inactive)
- GI50 (XF498): 0.536 µM (active)
